Source: paper PMC12525849, “In Silico and RP HPLC Studies of Biologically Active 1,3,4-Thiadiazol-2-yl)-benzene-1,3-diols” (Molecules, 2025)
Like-named read-outs stand apart in the source and are kept apart here. Values belong to the compound of their own block, whether it stands above or below them.

Columns and labels:
[1] = RP HPLC on octadecyl (C-18/RP-18) column, buffer-MeOH pH 7.4, log kw by extrapolation; type: physicochemical; conditions: C18 stationary phase; for log kw C-18: MeOH-buffer pH 7.4, extrapolated intercept; for S: slope of log k vs MeOH content, pH 7.4
Text: (§1) The retention factors of considered compounds were investigated using five different bonded stationary phases: octadecyl (RP-18), octyl (RP-8), cholesterol (Chol), phosphatidylcholine (IAM), and biphenyl (BPh). Water buffer–methanol mobile phases with pH 7.4 were used. The content of MeOH was varying and it depended on the type of compound and the stationary phase.
For the tested systems, linear relationships were obtained between the retention coefficient log k and the content of MeOH (%) in the mobile phase expressed by the Snyder–Soczewiński equation:log k = log kw + S (% organic modifier)(2) where: log kw—the intercept; S—the slope of regression curve.
Log kw values were estimated by the extrapolation method. Log kw and S parameters are presented in Figure 3, Table 2, and Tables S1–S5 in the Supplementary Materials. These parameters obtained by C-18, C-8, and IAM chromatography are commonly used as lipophilicity descriptors.
(§2) HPLC measurements for C-18, C-8, IAM, Chol, and BPh phases were carried out using a liquid chromatograph Knauer (Knauer, Berlin, Germany) with a single pump working in isocratic mode, a 20 µL simple injection valve, and a UV–visible detector (Knauer, Berlin, Germany) working at 280 nm at room temperature. The retention time of an unretained solute (t0) was determined by the injection of a small amount of citric acid dissolved in water. The mobile phase flow rate was 1 mL/min (0.35 mL/min for Chol). HPLC columns: C18—Eurosil Bioselect 300 × 4 mm, 5 μm; C8—Waters. Symetry 150 × 4.6 mm, 5 μm, 100 Ǻ; IAM—Rexchrom IAM.PC.DD2 100 × 4.6 mm, 12 μm; Chol—Cogent 4 UDC Cholesterol 150 × 2.1 mm, 4 μm; BPh—Kinetex Biphenyl 150 × 4.6 mm, 5 μm were applied.
(§3) Mobile phase for RP-18, RP-8, Chol, and BPh chromatography was composed using 20 mM acetic buffer/MeOH with respective MeOH concentration ranges (volume fractions: C18—from 0.5 to 0.99; C8—from 0.5 to 0.9; IAM—from 0.15 to 0.5; Chol: from 0.45 to 0.9; BPh: from 0.4 to 0.99) to obtain pH = 7.4. In the case of IAM chromatography, phosphate buffer was used. At least five consecutive retention times for five concentrations per every investigated compound for every chromatographic system were measured. Log k parameter was calculated as log k = log (tr−t0/t0), where tr = the retention time of the analyte; t0 = the retention time of an unretained compound.

[2] = Log D(7.4) determination from RP-18 measurements using a standard curve; type: physicochemical; conditions: C18 (RP-18) HPLC column with MeOH-water mobile phase; calculated from standard curve (Equation 3) and log kw C18, pH 7.4
Text: C-18 chromatography was used to determine the distribution coefficient log D(7.4) of the tested compounds using a standard curve. It was constructed for the reference compounds with known experimental log D(7.4) values and studied chromatographically under the same conditions as the analyzed compounds [44] (Table 4). The obtained log kw values were plotted against the log D(7.4) based on BioLoom Database values taken from Andres et al. (Table S6 in the Supplementary Materials). […] In the case of analogues 7 and 14, these differences are the largest and they constitute about 17% and 13%, respectively (Table 4). This means that the obtained log kw values from the C18/MeOH-water (pH = 7.4) chromatographic system reflect the extraction values of log D(7.4) quite well. […] The analytical standards were purchased from Sigma Aldrich […], Darmstadt, Germany). The obtained log kw values from HPLC C-18 were plotted against the log D(7.4) based on BioLoom Database values taken from Andres et al. (Table S6 in the Supplementary Materials).

[3] = Comparison of retention (log kw) on RP-18, RP-8, Chol, IAM and BPh stationary phases; type: physicochemical; conditions: for retention, in words: investigated stationary phases
Text: as §1
The lowest log kw values can be observed for RP-18 and IAM stationary phases. For most compounds, log kw IAM values have similar values or are lower than those obtained for C18 stationary phase. […] On the octadecyl column the main contribution to retention comes from almost entirely hydrophobic interactions, when in the case of IAM phase there are additional mechanisms involved in interactions as ion pairing and hydrogen bonding. They can be either attractive or repulsive in nature. This depends on the structure of compound and pH.
as §2, §3

[4] = cited from earlier work

log kw C-18 [1]: 2.537
S [1]: −3.494
chromatographic logD [2]: 2.51
SMILES: Oc1ccc(-c2nnc(-c3ccccc3)s2)c(O)c1 [Compound 1]

log kw C-18 [1]: 2.67
S [1]: −3.651
chromatographic logD [2]: 2.69
SMILES: Oc1ccc(-c2nnc(-c3ccccc3Cl)s2)c(O)c1 [Compound 4]

log kw C-18 [1]: 1.907
S [1]: −3.171
chromatographic logD [2]: 1.66
retention / determined lipophilicity, in words ([3]; all investigated stationary phases except IAM): weakest retention
SMILES: Oc1ccc(-c2nnc(-c3ccc(O)c(O)c3)s2)c(O)c1 [Compound 7]

log kw C-18 [1]: 3.734
S [1]: −4.65
chromatographic logD [2]: 4.12
retention, in words [3]: strongest retained
SMILES: Oc1cc(O)c(-c2nnc(-c3ccc(OC(F)(F)F)cc3)s2)cc1Cl [Compound 10]

log kw C-18 [1]: 2.477
S [1]: −3.66
chromatographic logD [2]: 2.42
retention, in words [3]: relatively low retention factor values
SMILES: Oc1ccc(-c2nnc(Nc3ccccc3)s2)c(O)c1 [Compound 11]

log kw C-18 [1]: 2.986
S [1]: −4.168
chromatographic logD [2]: 3.11
SMILES: Cc1ccc(Nc2nnc(-c3ccc(O)cc3O)s2)cc1 [Compound 12]

log kw C-18 [1]: 3.238
S [1]: −4.185
chromatographic logD [2]: 3.45
SMILES: CCOC(=O)c1ccc(Nc2nnc(-c3ccc(O)cc3O)s2)cc1 [Compound 15]

log kw C-18 [1]: 2.210
SMILES: C[C@]12CCC(=O)C=C1CC[C@@H]1[C@@H]2[C@@H](O)C[C@@]2(C)[C@H]1CC[C@]2(O)C(=O)CO [hydrocortisone, reference compound]

The remaining lines, values behind:

SMILES: Cc1cccc(-c2nnc(-c3ccc(O)cc3O)s2)c1 [Compound 2]
log kw C-18 [1]: 3
S [1]: −3.87
chromatographic logD [2]: 3.13

SMILES: Oc1ccc(-c2nnc(-c3ccccc3F)s2)c(O)c1 [Compound 3]
log kw C-18 [1]: 3.002
S [1]: −3.885
chromatographic logD [2]: 3.13

SMILES: Oc1ccc(-c2nnc(-c3ccc(Cl)cc3Cl)s2)c(O)c1 [Compound 5]
log kw C-18 [1]: 3.678
S [1]: −4.438
chromatographic logD [2]: 4.05

SMILES: Oc1ccc(-c2nnc(-c3ccc(C(F)(F)F)cc3)s2)c(O)c1 [Compound 6]
log kw C-18 [1]: 3.69
S [1]: −4.696
chromatographic logD [2]: 4.06
retention, in words [3]: strongest retained

SMILES: COc1cc(-c2nnc(-c3ccc(O)cc3O)s2)ccc1O [Compound 8]
log kw C-18 [1]: 2.545
S [1]: −3.785
chromatographic logD [2]: 2.52
retention, in words [3]: relatively low retention factor values

SMILES: O=[N+]([O-])c1cccc(-c2nnc(-c3ccc(O)cc3O)s2)c1 [Compound 9]
log kw C-18 [1]: 2.512
S [1]: −3.432
chromatographic logD [2]: 2.47
retention, in words [3]: relatively low retention factor values

SMILES: Oc1cc(O)c(-c2nnc(Nc3ccc(F)cc3)s2)cc1Cl [Compound 13]
log kw C-18 [1]: 3.005
S [1]: −4.173
chromatographic logD [2]: 3.14

SMILES: CCc1cc(-c2nnc(Nc3ccc(Cl)cc3)s2)c(O)cc1O [Compound 14]
log kw C-18 [1]: 4.296
S [1]: −5.335
chromatographic logD [2]: 4.88
retention, in words [3]: strongest retained

SMILES: Oc1ccc(-c2nnc(Nc3cccc4ccccc34)s2)c(O)c1 [Compound 16]
log kw C-18 [1]: 3.059
S [1]: −3.931
chromatographic logD [2]: 3.21

SMILES: CCCCNc1nnc(-c2cc(Cl)c(O)cc2O)s1 [Compound 17]
log kw C-18 [1]: 2.78
chromatographic logD [2]: 2.83

SMILES: Oc1ccc(-c2nnc(COc3ccc(OC(F)(F)F)cc3)s2)c(O)c1 [Compound 18]
log kw C-18 [1]: 2.879
S [1]: −3.883
chromatographic logD [2]: 2.97
retention, in words [3]: strongest retained

SMILES: Cn1c(=O)c2c(ncn2C)n(C)c1=O [caffeine, reference compound]
log kw C-18 [1]: 0.802

SMILES: O=C(CCCN1CCC(O)(c2ccc(Cl)cc2)CC1)c1ccc(F)cc1 [haloperidol, reference compound]
log D(7.4) Bio Loom ([4]; standards used for calibration curve, BioLoom Database values taken from Andres et al. ref 44): 2.92
log kw C-18 [1]: 3.012

SMILES: CC(=O)N1CCN(c2ccc(OCC3COC(Cn4ccnc4)(c4ccc(Cl)cc4Cl)O3)cc2)CC1 (stereo not shown) [ketoconazole, reference compound]
log kw C-18 [1]: 3.370

SMILES: CCN(CC)CC(=O)Nc1c(C)cccc1C [lidocaine, reference compound]
log kw C-18 [1]: 2.079

SMILES: c1ccc2ccccc2c1 [naphthalene, reference compound]
log D(7.4) Bio Loom ([4]; pH 7.4): 3.3
log kw C-18 [1]: 2.615

SMILES: Cn1c(=O)c2[nH]cnc2n(C)c1=O [theophylline, reference compound]
log kw C-18 [1]: 0.380
